# According to US20250066388A1, “1,3,4,7-TETRAHYDRO-2H-PYRROLO[3',2':5,6]PYRIDO[2,3-B][1,4]OXAZEPINE BCL-2 INHIBITORS” (AbbVie Inc., priority 2022, published 2025):
# pKi: −log10 of the molar value. “And” between values parts separate entries of the source, which are not always exact repeats. Equal entries are not always repeated. Where two headings read alike, the source gives them in different places.
# Columns and labels:
# [1] = Bioavailability study: pharmacokinetics after single intravenous or oral dose in mouse; assay type: in vivo; settings: for half-life: CD-1, mouse, plasma, 1 mg/kg
# Protocol: Studies were conducted to evaluate the pharmacokinetic profiles of Example 25 herein and Example 2 in WO 2019/040550 after single intravenous or oral dose in mouse. CD-1 mice (male) were obtained from Charles River Laboratories (Wilmington, MA).
# The pharmacokinetics of Example 25 herein and Example 2 in WO 2019/040550 were evaluated following single 1 mg/kg intravenous or oral doses in mouse. Example 25 herein and Example 2 in WO 2019/040550 were prepared as a solution in DMSO: Tween 80: PEG-400: Dextrose 5% in Water (5:5:20:70, v/v) for the IV and oral dose mouse studies. The intravenous dose was administered as a slow bolus to the penile vein under isoflurane anesthesia. The oral doses were administrated by gavage. Serial blood samples were obtained […], 0.25, 0.5, 1.0, 4, 6, 9, 12, 24, 32 and 48 hours post dosing and […]. Plasma was separated by centrifugation and stored frozen (<−15° C.) until analysis.
# HPLC-MS/MS bioanalytical methods were utilized for the quantitation of Example 25 herein and Example 2 in WO 2019/040550 concentration in plasma. The analytical methods used protein precipitation to extract compound from plasma. All samples were combined with a minimum two volume equivalents of organic solvent containing internal standard, vortexed and then centrifuged to pellet the proteins. Supernatants were used for subsequent analysis by liquid chromatography-tandem mass spectrometry (LC-MS/MS). Studies involving quantitative analysis employed spiked standards in plasma that were processed simultaneously with the samples.
# Analytes were separated using reverse phase chromatography on a C8 or C18 column prior to analysis on an API5500™ (or higher) mass spectrometer with a Turbo-Ion Spray source. Peak areas were determined using Sciex Analyst™ 1.6 (or higher) software or Sound Analytics DiscoveryQuant™ 2.0 (or higher) software. Actual concentrations (when required) were calculated by regression analysis of the peak area ratio (parent/internal standard) of the spiked standards versus concentrations.
# Peak plasma concentrations (Cmax) and the time to peak plasma concentration (Tmax) were determined directly from the plasma concentration data for each animal. The compound plasma concentration data were submitted to multi-exponential curve fitting using WinNonlin software. The area under the plasma concentration-time curve from 0 to t hours after dosing (AUC0-t, t=time of the last measurable plasma concentration) was calculated using the linear trapezoidal rule. The residual area extrapolated to infinity, determined as the final measured plasma concentration (Ct) divided by the terminal plasma elimination rate constant (β), was added to the AUC0-t to produce the total area under the curve (AUC0-∞). The apparent total plasma clearance (CLp) was calculated by dividing the administered dose by the AUC0-∞. Half-life (t1/2) was determined with the following calculation: t1/2=ln (2)/elimination rate constant. The initial volume of distribution (Vc) was calculated as the dose divided by the extrapolated concentration at time=0 (C0). The volume of distribution at steady state, Vss, was estimated as a product of the total plasma clearance (CLp) and the mean residence time (MRT); the terminal-phase volume of distribution, Vβ, was derived from the total plasma clearance value (CLp) divided by the terminal plasma elimination rate constant (β). Oral bioavailability (F) was calculated as the dose-normalized AUC0-∞ (AUC0-∞/D) from the oral dose divided by the corresponding dose normalized AUC0-∞ from intravenous dosing.
# Bcl-xL protein = Bcl-xL protein (Homo sapiens (Human), UniProt Q07817); test: TR-FRET binding assay, Bcl-xL; settings: F-Bak peptide probe
# Chain of Bcl-xL protein (Q07817 other isoform, or with tags, fused parts or gaps): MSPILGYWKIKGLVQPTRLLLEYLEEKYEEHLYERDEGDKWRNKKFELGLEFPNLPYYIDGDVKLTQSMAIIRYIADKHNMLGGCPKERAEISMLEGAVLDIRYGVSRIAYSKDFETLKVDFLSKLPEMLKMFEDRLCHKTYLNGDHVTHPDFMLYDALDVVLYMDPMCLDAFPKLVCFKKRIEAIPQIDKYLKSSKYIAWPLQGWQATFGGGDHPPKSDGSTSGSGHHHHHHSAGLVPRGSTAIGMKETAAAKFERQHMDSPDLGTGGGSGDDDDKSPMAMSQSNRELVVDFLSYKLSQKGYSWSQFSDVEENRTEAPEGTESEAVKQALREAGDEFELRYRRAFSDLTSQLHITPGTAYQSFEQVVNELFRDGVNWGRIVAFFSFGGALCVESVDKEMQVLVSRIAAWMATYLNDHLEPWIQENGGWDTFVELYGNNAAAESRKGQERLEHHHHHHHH
# Bcl-2 protein = Bcl-2 protein (Homo sapiens (Human), UniProt P10415); test: TR-FRET binding assay, Bcl-2; settings: F-Bak peptide probe, GST-Bcl-2
# Chain of Bcl-2 protein (P10415 other isoform, or with tags, fused parts or gaps): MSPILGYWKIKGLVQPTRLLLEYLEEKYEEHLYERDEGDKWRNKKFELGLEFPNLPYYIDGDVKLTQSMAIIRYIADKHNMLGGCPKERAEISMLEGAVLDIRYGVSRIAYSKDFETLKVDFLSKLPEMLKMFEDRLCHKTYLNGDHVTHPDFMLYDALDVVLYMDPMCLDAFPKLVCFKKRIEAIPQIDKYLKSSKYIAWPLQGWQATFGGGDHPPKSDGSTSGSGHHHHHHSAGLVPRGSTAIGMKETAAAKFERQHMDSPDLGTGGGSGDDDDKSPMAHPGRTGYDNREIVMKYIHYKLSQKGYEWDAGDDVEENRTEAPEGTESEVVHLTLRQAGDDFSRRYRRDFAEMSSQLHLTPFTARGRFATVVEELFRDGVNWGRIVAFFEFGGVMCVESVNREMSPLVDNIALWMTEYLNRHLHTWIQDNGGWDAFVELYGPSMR
# [2] = IV (1 mg/kg), mouse plasma, individual mouse
# [3] = PO (1 mg/kg), mouse plasma, individual mouse
compound,measurement,setting,value
"CO[C@@H]1CC[C@@H](CNc2ccc(S(=O)(=O)NC(=O)c3ccc(N4CCN5CC6=C(c7ccc(Cl)cc7)CC(C)(C)C[C@H]6OCCCOC[C@@H]5C4)cc3N3CCCOc4nc5[nH]ccc5cc43)cc2[N+](=O)[O-])OC1 [Example 25, 4-((4aS,10aR)-14-(4-chlorophenyl)-12,12-dimethyl-1,2,4a,5,8,9,10a,11,13,15-decahydro-7H,12H-benzo[f]pyrazino[2,1-c][1,8]dioxa[4]azacycloundecin-3(4H)-yl)-2-(3,4-dihydro-2H-pyrrolo[3′,2′:5,6]pyrido[2,3-b][1,4]oxazepin-1(7H)-yl)-N-((4-((((2S,5R)-5-methoxytetrahydro-2H-pyran-2-yl)methyl)amino)-3-nitrophenyl)sulfonyl)benzamide]",AUC,[1]; [2],11200 ng·h/mL and 12900 ng·h/mL
same,C0,[1]; [2],5020 ng/mL and 3470 ng/mL
same,CLP,[1]; [2],1.48 mL/min/kg
same,MRT,[1]; [2],9.8 h
same,VSS,[1]; [2],0.93 L/kg and 0.76 L/kg
same,Vβ,[1]; [2],0.95 L/kg and 1.0 L/kg and 0.90 L/kg
same,t1/2,[1]; [2],7.9 h and 8.1 h
same,Vβ,"[1]; IV (1 mg/kg), mouse plasma, mean",0.96 L/kg
same,AUC,[1]; [3],4330 ng·h/mL and 4490 ng·h/mL
same,Cmax,[1]; [3],279 ng/mL and 274 ng/mL
same,half-life,"[1]; male, iv, IV (1 mg/kg), individual mouse",10 h
same,half-life,"[1]; male, po, PO (1 mg/kg), harmonic mean",8.7 h
same,half-life,"[1]; male, po, PO (1 mg/kg), individual mouse",8.7 h
same,MRT,"[1]; male, CD-1, IV (1 mg/kg), mouse plasma, individual mouse, read-out: MRT",10 h
same,clearance,"[1]; male, CD-1, IV (1 mg/kg), mouse plasma, mean, read-out: CLP (converted)",1.28 mL/min/kg
same,Tmax,"[1]; male, CD-1, PO (1 mg/kg), mouse plasma, individual mouse",4 h
same,pKi,Bcl-xL protein,7.87
same,pKi,Bcl-2 protein,9.56
